{"source": "patent US20110288036A1", "about": "“Methods for Treating or Preventing Vascular Graft Failure” (priority 2010, published 2011)", "key": {"JNK": {"test_system": "JNK", "experiment": "JNK radiometric kinase assay", "type": "biochemical", "conditions": "peptide 100 μM", "source_text": "A commercial radiometric assay service was used to test the specificity and potency of MMI-0100 ([…]; SEQ ID NO: 1) by measuring its half maximal inhibitory concentrations (IC50). This quantitative assay measures how much MK2 inhibitor (MMI-0100; […] (SEQ ID NO: 1)) is needed to inhibit 50% of a given biological process or component of a process (i.e., an enzyme, cell, or cell receptor). Specifically, in these assays, a positively charged substrate is phosphorylated with a radiolabeled phosphate group from an ATP if the kinase is not inhibited by an inhibitor peptide. The positively charged substrate then is attracted to a negatively charged filter membrane, quantified with a scintillation counter, and compared to a 100% activity control. ATP concentrations within 15 μM of the apparent Km for ATP were chosen since an ATP concentration near the Km may allow for the kinases to have the same relative amount of phosphorylation activity. […]\nFor the JNK (c-Jun N-terminal Kinase) radiometric assay, 5-10 mU of JNK was incubated with 50 mM Tris pH 7.5, 0.1 mM EGTA, 0.1% b-mercaptoethanol, 3 μM ATF2 (a substrate for JNK), 10 mM MgAcetate, and 10 μM of [y-^33P-ATP] in the final reaction volume of 25 μl. […] The washed P30 filtermat was dried and its radioactivity was measured by scintillation counter.\nIC50 values for inhibitor peptides were determined using Millipore's IC50 Profiler Express service. […]"}, "[1]": {"test_system": "human saphenous vein (HSV)", "experiment": "Human saphenous vein organ culture model of intimal hyperplasia", "type": "cell-based", "conditions": "for average intimal thickness: control 81.6±17.3, pre-culture 43.7±7.8", "procedure": "De-identified, discarded segments of human saphenous vein (HSV) were collected from consented patients undergoing coronary artery or peripheral vascular bypass surgeries. HSV segments were stored in a saline solution until the end of the surgical procedure, at which time they were placed in cold transplant harvest buffer (100 mM potassium lactobionate, 25 mM KH2PO4, 5 mM MgSO4, 30 mM Raffinose, 5 mM Adenosine, 3 mM Glutathione, 1 mM Allopurinol, 50 g/L Hydroxyethyl starch, pH 7.4). The vessels were used within 24 hours of harvest. Using sterile technique, HSV segments were transferred to a 60-mm Petri dish under a sterile hood. The edges (0.5 mm) of each segment were removed with a blade and excess adventitial tissue and fat removed with minimal manipulation. HSV segments were cut into consecutive rings of approximately 1.0 mm in width to be utilized for organ culture or muscle bath experiments. Two rings from each segment were immediately fixed in 10% formalin at 37° C. for 30 min to obtain pre-culture intimal thickening measurements.\nAfter viability was determined in the muscle bath, additional rings were cut and placed in 8-well chamber slides and maintained in RPMI 1640 medium supplemented with 30% FBS, 1% L-glutamine and 1% penicillin/streptomycin for 14 days at 37° C. in an atmosphere of 5% CO2 in air. The rings were either untreated or treated with 10 μM, 50 μM or 100 μM of MMI-0100 peptide ([…] (SEQ ID NO: 1)). The culture medium with treatments was replaced every 2-3 days.\nAfter 14 days of organ culture, vein segments were fixed in 0.5 mL of 10% formalin at 37° C. for 30 minutes and embedded in paraffin for sectioning. Beginning at the mid-portion of each ring, 5 transverse sections, spaced 5 μm apart, were cut for each specimen. Sections were then stained with Verhoeff-van Gieson stain. Each section was examined using light microscopy (Carl Zeiss, Thornwood, N.Y.) and 6 radially parallel measurements of intimal and medial thickness were randomly taken from each section ([…]). Intima was defined as tissue on the luminal side of the internal elastic lamina or the chaotic organization of the cells contained within it, whereas the medial layer was contained between the intimal layer and the external elastic lamina. Intimal and medial thickening was measured for each section at 5× magnification with the microscope's computerized image analysis system.\nTo this end, rings of human saphenous vein (HSV) were cultured in RPMI medium supplemented with L-glutamine (1%), penicillin/streptomycin (1%), and fetal bovine serum (FBS) (30%) at 5% CO2 and 37° C. for 14 days.\nThe effect of MMI-0100 ([…]; SEQ ID NO: 1) on development of intimal hyperplasia was further examined in a follow-up study in which intimal thickness of HSV in an organ culture model was measured in the presence of high serum and different concentrations (10-100 μM) of MMI-0100 ([…]; SEQ ID NO: 1). HSV were cultured for 14 days in 30% serum. All veins were deemed viable at the time of culture by adequate contraction with a phenylephrine challenge in a muscle bath. The average intimal thickness of pre-cultured vein segments was 43.7±7.8 μm. After culture, the average intimal thickness of the control was 81.6±17.3 μm. The average intimal thickness in the presence of 50 μM and 100 μM MMI-0100 ([…]; SEQ ID NO: 1) was 42.7±6.0 μm and 50.4±10.7 μm, respectively, with a significant reduction in intimal thickness (FIGS. 10A and 11)."}, "[2]": {"test_system": "mouse lung endothelial cells (MLEC)", "experiment": "Murine endothelial cell proliferation by direct cell counting", "type": "cell-based", "conditions": "physiological doses", "source_text": "Primary cultures of mouse lung endothelial cells (MLEC) were isolated as previously described (Ackah, E. et al., J. Clin Invest., 2005, 115(8): 2119-27; Muto, A. et al., J. Exp. Med., 2011, 208(3): 561-575). Mouse lung endothelial cells (MLECs) were isolated from 3-week-old wild type mice. Briefly, mice were euthanized with an overdose of ketamine/xylazine and the lungs excised, minced, and digested with 0.1% collagenase in RPMI medium. The digest was homogenized by passing multiple times through a 14-gauge needle, filtered through a 150-μm tissue sieve, and the cell suspension was plated on 0.1% gelatin-coated dishes. Endothelial cells were then isolated by immunoselection with PECAM-1- and ICAM-2-conjugated magnetic beads. After immunoselection with magnetic beads, endothelial cells were immortalized with polyoma middle T-antigen. Isolated MLEC were maintained with EBM-2/EGM-2 MV SingleQuot® Kit Supplement & Growth Factors (Lonza) containing 15% fetal bovine serum. Cell proliferation in MLEC was measured at 24 and 72 hours after MMI-0100 treatment by direct cell counting after trypsin treatment."}}, "data": [{"sequence": "YARAAARQARAKALARQLGVAA [MMI-0100]", "values": [{"measurement": "Percent Activity, JNK", "setting": "JNK", "value": 92, "unit": "%"}, {"measurement": "mean intimal thickness of HSV in culture", "setting": "[1]; 5 μM or 10 μM, 14 days culture, in contrast to r-HSPB1", "value": "significantly reduced the mean intimal thickness"}, {"measurement": "mean intimal thickness", "setting": "[1]; 10 μM, 14 days culture", "value": 14, "unit": "μm"}, {"measurement": "average intimal thickness", "setting": "[1]; 50 μM, 14 days, 30% serum", "value": "42.7±6.0", "unit": "μm"}, {"measurement": "intima:media (I:M) ratio", "setting": "[1]; 100 μM, 14 days, 30% serum", "value": "greater reduction of the I:M ratio"}, {"measurement": "average intimal thickness", "setting": "[1]; 100 μM, 14 days, 30% serum", "value": "50.4±10.7", "unit": "μm"}, {"measurement": "murine EC proliferation", "setting": "[2]", "value": "did not induce significant murine EC proliferation"}]}]}
